Laboratory results reported in article PMC9257625 (RSC Chemical Biology, 2022).
Positions of bridges follow the written chain, without caps; N, C: chain ends. Non-standard residues stand in square brackets, D forms with d. Residues, ends and D or L forms follow the SMILES beside them. S5 = C=CCCC[C@](C)(N)C(=O)O

Tests used:
[1] = Circular dichroism spectroscopy, percent helicity; type: physicochemical; conditions: CD θ220, 10 mM phosphate buffer pH 7.4, 50 μM peptide
pepsin = pepsin (Sus scrofa, UniProt P00791); test: Protease stability assay, pepsin; type: in vitro ADME, porcine; conditions: acidic pH
Sequence of pepsin (P00791 60-385): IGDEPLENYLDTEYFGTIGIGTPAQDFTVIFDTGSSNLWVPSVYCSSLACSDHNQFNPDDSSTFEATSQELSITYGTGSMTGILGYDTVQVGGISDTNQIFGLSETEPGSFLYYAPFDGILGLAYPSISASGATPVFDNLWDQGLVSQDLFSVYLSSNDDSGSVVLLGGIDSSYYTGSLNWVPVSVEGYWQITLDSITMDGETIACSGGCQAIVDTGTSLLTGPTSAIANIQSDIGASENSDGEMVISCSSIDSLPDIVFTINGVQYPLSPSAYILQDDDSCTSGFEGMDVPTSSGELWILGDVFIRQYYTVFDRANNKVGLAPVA

proteinase K = proteinase K (Parengyodontium album, UniProt P06873); test: Protease stability assay, proteinase K; type: in vitro ADME, fungal
Sequence of proteinase K (P06873 106-384): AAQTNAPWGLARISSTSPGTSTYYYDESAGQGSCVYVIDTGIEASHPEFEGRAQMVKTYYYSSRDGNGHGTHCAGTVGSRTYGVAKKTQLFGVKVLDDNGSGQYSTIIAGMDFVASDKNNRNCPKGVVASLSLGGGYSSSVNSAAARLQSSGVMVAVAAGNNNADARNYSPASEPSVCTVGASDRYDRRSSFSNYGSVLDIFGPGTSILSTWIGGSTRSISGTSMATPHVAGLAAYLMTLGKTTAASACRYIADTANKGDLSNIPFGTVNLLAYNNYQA

Compound | Percent helicity [1] | Cleavage by pepsin (in words) (pepsin) | Cleavage by / resistance to proteinase K (in words) (proteinase K)
CC(=O)N[C@@H](CC(C)C)C(=O)N[C@H](C(=O)N[C@@H](Cc1ccccc1)C(=O)N[C@@]1(C)CCCC=CCCC[C@@](C)(C(=O)N[C@@H](CCC(N)=O)C(=O)N[C@@H](CC(C)C)C(=O)N[C@H](C(=O)N[C@@H](CO)C(N)=O)[C@@H](C)O)NC(=O)[C@H](Cc2c[nH]c3ccccc23)NC(=O)[C@H](Cc2ccc(O)cc2)NC(=O)[C@H](CCC(=O)O)NC1=O)[C@@H](C)O [Peptide 2a] (Ac-LTF[S5]EYW[S5]QLTS-NH2; staple 4-8) | ~60% | – | –
CC(=O)N[C@@H](CC(C)C)C(=O)N[C@H](C(=O)N[C@@H](Cc1ccccc1)C(=O)N[C@H]1CCCn2cc(nn2)-c2cccc(c2)-c2cn(nn2)CCC[C@@H](C(=O)N[C@@H](CO)C(N)=O)NC(=O)[C@H](CC(C)C)NC(=O)[C@H](CCC(N)=O)NC(=O)[C@H](C)NC(=O)[C@H](Cc2c[nH]c3ccccc23)NC(=O)[C@H](Cc2ccc(O)cc2)NC(=O)[C@H](CCC(=O)O)NC1=O)[C@@H](C)O [Peptide 4a] | 27% | completely cleaved | partially vulnerable to cleavage
